These results are taken from patent US20100216718A1, “Cancer Classification and Methods of Use” (priority 2007, published 2010).

The subject of one test is Akt (Ser473). Description: Western blot of Akt phosphorylation in H1703 cells. The format is cell-based, human. To be noted: for phosphorylation of Akt at Ser473: treated for 1 hr, western blot (FIG. 5B). The protocol:
(§1) We dissolved drugs (Iressa and Gleevec) in DMSO to yield 10 mM stock solution and stored at −20° C.

A further test has as its target T1, PDGFRα (Homo sapiens, UniProt P16234).
T1 construct: PDGFRα expression is highly restricted to H1703 cell line; endogenous in cells; host or cells: H1703 human NSCLC cell line (ATCC)
Description: Western blot of PDGFRα phosphorylation in H1703 cells. The format is cell-based. The procedure: as §1
In general terms: A western blot detects proteins with antibodies after separation by electrophoresis.

The test system of a further test is p44/42MAPK. Description: Western blot of p44/42MAPK phosphorylation in H1703 cells. Particulars: 100 nM Imatinib, 1 hour (FIG. 9B). The format is cell-based, human. The protocol: as §1
For the next test, the system named is H1703 cells. In words: Cell growth inhibition assay (MTT/MTS), H1703. Particulars: 72 hr (FIG. 5C). It counts as cell-based, human.
For another test, the system named is H1703 xenograft. Description: H1703 mouse xenograft. The format is in vivo, NCR nude mice. The procedure:
We purchased four to six weeks female NCR nude mice from Taconic ande used them to generate H1703 xenograft. We carried out experiments under an IACUC approved protocol. We followed institutional guidelines for the proper and humane use of animals in research. We generated tumors by injecting 10 mice with 5×10^6H1703 cells and reconstituted basement membrane Matrigel (BD Biosciences) with 1:1 ratio in PBS. Drug treatment started when the tumor was about 1 mm×1 mm size. 5 mice were treated with Gleevec at 50 mg/kg/day by oral gavage using a ball ended feeding needle. 5 mice were untreated. […] We measured the average tumor diameter using caliper in both control and treated groups of mice.

For test [1], the system named is phosphotyrosine signaling in H1703 cells. In words: SILAC LC-MS/MS phosphotyrosine analysis of H1703 cells. The format is cell-based, human. Particulars: 1 μM Gleevec for 3 hours. From the text:
We performed phosphopeptide immunoprecipitation from different cell lines as described previously (Rush, J., Moritz, A., Lee, K. A., Guo, A., Goss, V. L., Spek, E. J., Zhang, H., Zha, X. M., Polakiewicz, R. D., and Comb, M. J. (2005). Immunoaffinity profiling of tyrosine phosphorylation in cancer cells. Nat. Biotechnol. 23, 94-101) using the PhosphoScan Kit (P-Tyr-100) from CST.
We split equal number of H1703 cells and grew them in either light or heavy SILAC medium (RPMI medium lacking arginine and lysine supplemented with either regular L-Lysine:HCl and L-Arginine:HCL (Sigma) for light medium, or supplemented with L-arginine:HCl (U-13 C6,98%) and L-lysine:2HCl (U-13C6,98%; U-15N2,98%) (Cambridge Isotope Laboratories) for heavy medium. The medium also contained 10% FBS, and penicillin/streptomycin. We grew cells for at least five generations to reach 100 million cells in each medium type. We then treated cells grown in the heavy medium with 1 μM Gleevec for 3 hours. We lysed both treated and control cells in Urea lysis buffer and combined them for phosphopeptide immunoprecipitation experiment as described above.
We LC-MS analyzed each phosphopeptide sample in duplicate. We packed a fused silica microcapillary column (125 μm×18 cm) with C18 reverse-phase resin (Magic C18AQ, 5 μm particles, 200 Å pore size, Michrom Bioresources, Auburn, Calif.). We loaded samples (4 μL) onto this column with an autosampler (LC Packings Famos, San Francisco, Calif.) and eluted them into the mass spectrometer by a 55-min linear gradient of 7 to 30% acetonitrile in 0.1% formic acid. We delivered the gradient at approximately 600 nl/min using a binary HPLC pump (Agilent 1100, Palo Alto, Calif.) with an in-line flow splitter. We mass analyzed eluting peptide ions with a hybrid linear ion trap-7 Tesla ion cyclotron resonance Fourier transform instrument (LTQ-FT, Thermo Electron, San Jose, Calif.). We employed a top-seven method, whereby we collected 7 data-dependent MS/MS scans in the linear ion trap based on measurements made during the previous MS survey scan in the ICR cell, with the linear ion trap and the Fourier transform instrument operating concurrently. We performed MS scans at 375-1800 m/z with an automatic gain control (AGC) target of 3×10^6 and a mass resolution of 10^5. For MS/MS the AGC was 4000, the dynamic exclusion time was 25 s, and singly-charged ions were rejected by charge-state screening.
We assigned peptide sequences to MS/MS spectra using Sequest software (v.27, rev.12) and a composite forward/reverse IPI human protein database. Search parameters were: trypsin as protease; 1.08 Da precursor mass tolerance; static modification on cysteine (+57.02146, carboxamidomethylation); and dynamic modifications on serine, threonine and tyrosine (+79.96633 Da, phosphorylation), lysine (+8.01420, ^13C6 ^15N2), arginine (+6.02013, ^13C6) and methionine (+15.99491, oxidation). We used a target/decoy database approach to establish appropriate score-filtering criteria such that the estimated false-positive assignment rate was <1%. In addition to exceeding charge-dependent XCorr thresholds (for z=2, XCorr≧2.2; for z=3, XCorr≧3.3; for z=4, XCorr≧3.5), we required assignments to contain phosphotyrosine, to have a mass accuracy of −5 to +25 ppm, and to contain either all-light or all-heavy lysine/arginine residues. We further evaluated assignments passing these criteria using a custom quantification program Vista (Bakalarski, C. E., Elias, J. E., Villen, J. Haas, W., Gerber, S. A., Everley, P. A., and Gygi, S. P. (2008) The Impact of Peptide Abundance and Dynamic Range on Stable-Isotope-Based Quantitative Proteomic Analyses. J. Proteome Res. 10.1021/pr800333e) to calculate peak areas and ultimately a relative abundance between heavy and light forms of each peptide.

A further test concerns PLCγ1. Description: Western analysis with site and phosphorylation-specific antibodies, PLCγ1. The format is cell-based, human. To be noted: H1703 cells, 1 μM for 3 hours, western (FIG. 9E). The protocol:
as §1

Another test concerns SHP2. In words: Western analysis with site and phosphorylation-specific antibodies, SHP2. It counts as cell-based, human. To be noted: H1703 cells, 1 μM for 3 hours, western (FIG. 9E). The protocol: as §1
Another test concerns Stat3. Description: Western analysis with site and phosphorylation-specific antibodies, Stat3. To be noted: H1703 cells, 1 μM for 3 hours, western (FIG. 9E). It counts as cell-based, human. The procedure: as §1
The subject of another test is A549 cells. To be noted: previous report (Zhang et al. 2003); cited from earlier work.
Where [2] appears, read: 100 nM Imatinib, 1 hour (FIG. 9B).
[3] abbreviates: indicated amounts of Imatinib mesylate, 1 hour (FIG. 9B).

Structures are written as SMILES.

T1 sequence (P16234 24-1089): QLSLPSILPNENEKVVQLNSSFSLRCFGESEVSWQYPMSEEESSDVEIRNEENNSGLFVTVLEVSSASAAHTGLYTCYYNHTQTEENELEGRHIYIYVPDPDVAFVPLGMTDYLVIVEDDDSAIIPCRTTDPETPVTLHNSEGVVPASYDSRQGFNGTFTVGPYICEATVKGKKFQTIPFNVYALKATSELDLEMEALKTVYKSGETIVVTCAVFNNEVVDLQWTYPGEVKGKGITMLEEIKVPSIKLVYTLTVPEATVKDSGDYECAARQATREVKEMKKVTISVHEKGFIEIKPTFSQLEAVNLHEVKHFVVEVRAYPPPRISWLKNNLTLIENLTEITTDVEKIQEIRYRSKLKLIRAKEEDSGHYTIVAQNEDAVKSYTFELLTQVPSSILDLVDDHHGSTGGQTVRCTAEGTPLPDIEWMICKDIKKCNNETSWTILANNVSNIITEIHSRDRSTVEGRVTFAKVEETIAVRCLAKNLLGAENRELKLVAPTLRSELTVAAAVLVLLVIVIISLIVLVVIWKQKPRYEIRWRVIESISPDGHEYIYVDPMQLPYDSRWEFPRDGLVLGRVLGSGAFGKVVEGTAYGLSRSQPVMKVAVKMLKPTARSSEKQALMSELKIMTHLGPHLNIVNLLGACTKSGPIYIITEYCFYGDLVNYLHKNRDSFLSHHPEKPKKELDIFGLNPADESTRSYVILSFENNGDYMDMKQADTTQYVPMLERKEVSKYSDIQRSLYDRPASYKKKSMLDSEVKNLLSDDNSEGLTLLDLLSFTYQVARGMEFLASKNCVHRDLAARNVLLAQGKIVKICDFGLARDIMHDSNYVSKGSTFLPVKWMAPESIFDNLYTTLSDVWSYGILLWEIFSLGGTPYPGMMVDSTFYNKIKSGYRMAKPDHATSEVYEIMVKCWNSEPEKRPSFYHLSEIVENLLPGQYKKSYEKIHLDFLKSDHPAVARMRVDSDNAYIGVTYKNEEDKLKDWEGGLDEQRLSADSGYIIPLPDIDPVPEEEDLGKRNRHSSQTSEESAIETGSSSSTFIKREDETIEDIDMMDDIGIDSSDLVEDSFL

For the compound `Cc1ccc(NC(=O)c2ccc(CN3CCN(C)CC3)cc2)cc1Nc1nccc(-c2cccnc2)n1` [Imatinib], the Akt phosphorylation entry in the test with Akt (Ser473) (setting [2]) was “almost complete inhibition”. Besides, the “Akt phosphorylation (Ser473)” value with Akt (Ser473) (setting [3]) was “dose-dependent inhibition”. In addition, the “phosphorylation of Akt at Ser473” value with Akt (Ser473) is “blocked”. At PDGFRα (setting [2]), the PDGFRα phosphorylation entry was “almost complete inhibition”. The “phosphorylation of PDGFRα” value on PDGFRα (1 μM for 3 hours, western (FIG. 9E)) is “decreased phosphorylation”. For the same compound, the “PDGFR α phosphorylation (Tyr754)” value on PDGFRα (setting [3]) is recorded as “dose-dependent inhibition”. Also, the p44/42MAPK phosphorylation result in the test on p44/42MAPK was “little if any effect”. In the test with H1703 cells, the “cell growth / sensitivity to Imatinib” value is reported as “sensitivity profile similar to K562 cells”. Moreover, in the test on H1703 cells (listed as Imatinib mesylate), the “cell growth / sensitivity to Imatinib” value is “inhibits cell growth”. In addition, in the test on H1703 xenograft (H1703 xenograft in nude mice, 50 mg/kg daily, 2 week period, vs vehicle), the tumor growth entry is “immediate and profound effects on tumor growth”. Further, in the test on H1703 xenograft (H1703 xenograft, after 7 days of Imatinib treatment at 50 mg/kg (FIG. 9F)), the tumor growth entry is given as “blocks tumor growth”. In addition, in test [1], the “phosphorylation of SMS2” value was “inhibited phosphorylation”, the “phosphorylation of the ras effector Rinl” value is listed as “inhibited phosphorylation”, the “tyrosine phosphorylation of SHP-2” value is given as “suppressed tyrosine phosphorylation” and the “tyrosine phosphorylation of Stat5” value was “suppressed tyrosine phosphorylation”. In test [1], the “tyrosine phosphorylation of phospholipase Cg 1” value was “suppressed tyrosine phosphorylation”; the “tyrosine phosphorylation of proteins regulating the cytoskeleton and actin reorganization and signaling molecules involved in membrane recycling and endocytosis” value is “suppressed”; the “tyrosine phosphorylation of the regulatory subunit of PI3K” value is given as “suppressed tyrosine phosphorylation”. Besides, in the test with PLCγ1, the “phosphorylation of PLCγ1” value is “decreased phosphorylation”. Also, the “phosphorylation of SHP2” value in the test on SHP2 was “decreased phosphorylation”. Moreover, the “phosphorylation of Stat3” value in the test with Stat3 is given as “not changed”. Besides, the “sensitivity to Imatinib” value with A549 cells is recorded as “showed sensitivity”.

On to `COc1cc2ncnc(Nc3ccc(F)c(Cl)c3)c2cc1OCCCN1CCOCC1` [Gefitinib], for which the “phosphorylation of Akt at Ser473” value in the test with Akt (Ser473) is “not by Gefitinib”.
